From the supplement of paper PMC10307832

How the values were obtained:
Experiment in all cases: relative viability (nuclei count vs DMSO), 5 days (fraction); higher = more cells survive
NCI-H2228 = test system: NCI-H2228
Summary of the method: (§1)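 Cells from lung cancer lines were seeded into 1536-well plates and, one day later, dosed by pin tool. Treatments were either a single drug or a fixed dose of an anchor drug with five library-drug doses (not always all listed) in √10 steps. After 5 days, nuclei were stained in a one-step fixation (final 0.05% Triton X-100, 1% formaldehyde, 1 ug/ml Hoechst) and counted on 4× images, and relative viability is the treated-to-vehicle nuclei ratio, as the median of duplicate plates.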

NCI-H2126 = test system: NCI-H2126
Summary of the method: as §1

HCC-366 = test system: HCC-366
Summary of the method: as §1

NCI-H1993 = test system: NCI-H1993
Summary of the method: as §1

EMC-BAC-2 = test system: EMC-BAC-2
Summary of the method: as §1

COR-L23 = test system: COR-L23
Summary of the method: as §1

NCI-H1395 = test system: NCI-H1395
Summary of the method: as §1

HCC-15 = test system: HCC-15
Summary of the method: as §1

LC-2-ad = test system: LC-2-ad
Summary of the method: as §1

SK-LU-1 = test system: SK-LU-1
Summary of the method: as §1

HOP-62 = test system: HOP-62
Summary of the method: as §1

NCI-H2023 = test system: NCI-H2023
Summary of the method: as §1

NCI-H2405 = test system: NCI-H2405
Summary of the method: as §1

NCI-H1944 = test system: NCI-H1944
Summary of the method: as §1

HARA = test system: HARA
Summary of the method: as §1

NCI-H358 = test system: NCI-H358
Summary of the method: as §1

NCI-H1793 = test system: NCI-H1793
Summary of the method: as §1

HCC-78 = test system: HCC-78
Summary of the method: as §1

NCI-H838 = test system: NCI-H838
Summary of the method: as §1

ChaGo-K-1 = test system: ChaGo-K-1
Summary of the method: as §1

ABC-1 = test system: ABC-1
Summary of the method: as §1

NCI-H23 = test system: NCI-H23
Summary of the method: as §1

Question: For `CCN(CC)CCCCNc1ncc2cc(-c3cc(OC)cc(OC)c3)c(NC(=O)NC(C)(C)C)nc2n1` + Cc1cc(Nc2cc(N3CCN(C)CC3)nc(Sc3ccc(NC(=O)C4CC4)cc3)n2)n[nH]1 [Tozasertib] (partner 0.1 µM), which relative viability (NCI-H2228; first compound 0.01 µM) is on record?
Answer: 0.183

Question: What about the relative viability (NCI-H2228; first compound 0.03162 µM) of the same molecule?
Answer: 0.231

Question: And the relative viability (NCI-H2228; first compound 0.1 µM)?
Answer: 0.319

Question: What about the relative viability (NCI-H2228; first compound 0.3162 µM) of the same molecule?
Answer: 0.258

Question: And the relative viability (NCI-H2228; first compound 1 µM)?
Answer: 0.197

Question: And the relative viability (NCI-H2126; first compound 0.01 µM)?
Answer: 0.861

Question: What about the relative viability (NCI-H2126; first compound 0.03162 µM) of the same molecule?
Answer: 0.859

Question: And the relative viability (NCI-H2126; first compound 0.1 µM)?
Answer: 1.1

Question: What about the relative viability (NCI-H2126; first compound 0.3162 µM) of the same molecule?
Answer: 0.864

Question: And the relative viability (NCI-H2126; first compound 1 µM)?
Answer: 0.798

Question: And the relative viability (HCC-366; first compound 0.01 µM)?
Answer: 0.112

Question: What about the relative viability (HCC-366; first compound 0.03162 µM) of the same molecule?
Answer: 0.135

Question: And the relative viability (HCC-366; first compound 0.1 µM)?
Answer: 0.102

Question: What about the relative viability (HCC-366; first compound 0.3162 µM) of the same molecule?
Answer: 0.107

Question: And the relative viability (HCC-366; first compound 1 µM)?
Answer: 0.0931

Question: And the relative viability (NCI-H1993; first compound 0.01 µM)?
Answer: 0.621

Question: And the relative viability (NCI-H1993; first compound 0.03162 µM)?
Answer: 0.608

Question: And the relative viability (NCI-H1993; first compound 0.1 µM)?
Answer: 0.604

Question: And the relative viability (NCI-H1993; first compound 0.3162 µM)?
Answer: 0.64

Question: What about the relative viability (NCI-H1993; first compound 1 µM) of the same molecule?
Answer: 0.566

Question: What about the relative viability (EMC-BAC-2; first compound 0.01 µM) of the same molecule?
Answer: 0.162

Question: And the relative viability (EMC-BAC-2; first compound 0.03162 µM)?
Answer: 0.292

Question: What about the relative viability (EMC-BAC-2; first compound 0.1 µM) of the same molecule?
Answer: 0.277

Question: What about the relative viability (EMC-BAC-2; first compound 0.3162 µM) of the same molecule?
Answer: 0.31

Question: What about the relative viability (EMC-BAC-2; first compound 1 µM) of the same molecule?
Answer: 0.26

Question: What about the relative viability (COR-L23; first compound 0.01 µM) of the same molecule?
Answer: 0.226

Question: And the relative viability (COR-L23; first compound 0.03162 µM)?
Answer: 0.205

Question: And the relative viability (COR-L23; first compound 0.1 µM)?
Answer: 0.157

Question: And the relative viability (COR-L23; first compound 0.3162 µM)?
Answer: 0.206

Question: And the relative viability (COR-L23; first compound 1 µM)?
Answer: 0.171

Question: What about the relative viability (NCI-H1395; first compound 0.01 µM) of the same molecule?
Answer: 0.77

Question: What about the relative viability (NCI-H1395; first compound 0.03162 µM) of the same molecule?
Answer: 0.754

Question: And the relative viability (NCI-H1395; first compound 0.1 µM)?
Answer: 0.785

Question: And the relative viability (NCI-H1395; first compound 0.3162 µM)?
Answer: 0.695

Question: And the relative viability (NCI-H1395; first compound 1 µM)?
Answer: 0.547

Question: What about the relative viability (HCC-15; first compound 0.01 µM) of the same molecule?
Answer: 0.45

Question: And the relative viability (HCC-15; first compound 0.03162 µM)?
Answer: 0.311

Question: What about the relative viability (HCC-15; first compound 0.1 µM) of the same molecule?
Answer: 0.428

Question: What about the relative viability (HCC-15; first compound 0.3162 µM) of the same molecule?
Answer: 0.342

Question: And the relative viability (HCC-15; first compound 1 µM)?
Answer: 0.247

Question: And the relative viability (LC-2-ad; first compound 0.01 µM)?
Answer: 0.416

Question: And the relative viability (LC-2-ad; first compound 0.03162 µM)?
Answer: 0.467

Question: What about the relative viability (LC-2-ad; first compound 0.1 µM) of the same molecule?
Answer: 0.433

Question: What about the relative viability (LC-2-ad; first compound 0.3162 µM) of the same molecule?
Answer: 0.483

Question: What about the relative viability (LC-2-ad; first compound 1 µM) of the same molecule?
Answer: 0.453

Question: What about the relative viability (SK-LU-1; first compound 0.01 µM) of the same molecule?
Answer: 0.306

Question: And the relative viability (SK-LU-1; first compound 0.03162 µM)?
Answer: 0.359

Question: What about the relative viability (SK-LU-1; first compound 0.1 µM) of the same molecule?
Answer: 0.388

Question: And the relative viability (SK-LU-1; first compound 0.3162 µM)?
Answer: 0.363

Question: And the relative viability (SK-LU-1; first compound 1 µM)?
Answer: 0.259

Question: What about the relative viability (HOP-62; first compound 0.01 µM) of the same molecule?
Answer: 0.473

Question: What about the relative viability (HOP-62; first compound 0.03162 µM) of the same molecule?
Answer: 0.377

Question: And the relative viability (HOP-62; first compound 0.1 µM)?
Answer: 0.386

Question: And the relative viability (HOP-62; first compound 0.3162 µM)?
Answer: 0.408

Question: What about the relative viability (HOP-62; first compound 1 µM) of the same molecule?
Answer: 0.319

Question: What about the relative viability (NCI-H2023; first compound 0.01 µM) of the same molecule?
Answer: 0.323

Question: What about the relative viability (NCI-H2023; first compound 0.03162 µM) of the same molecule?
Answer: 0.428

Question: And the relative viability (NCI-H2023; first compound 0.1 µM)?
Answer: 0.401

Question: And the relative viability (NCI-H2023; first compound 0.3162 µM)?
Answer: 0.41

Question: And the relative viability (NCI-H2023; first compound 1 µM)?
Answer: 0.222

Question: What about the relative viability (NCI-H2405; first compound 0.01 µM) of the same molecule?
Answer: 0.729

Question: And the relative viability (NCI-H2405; first compound 0.03162 µM)?
Answer: 0.737

Question: And the relative viability (NCI-H2405; first compound 0.1 µM)?
Answer: 0.699

Question: And the relative viability (NCI-H2405; first compound 0.3162 µM)?
Answer: 0.733

Question: What about the relative viability (NCI-H2405; first compound 1 µM) of the same molecule?
Answer: 0.695

Question: What about the relative viability (NCI-H1944; first compound 0.01 µM) of the same molecule?
Answer: 0.25

Question: And the relative viability (NCI-H1944; first compound 0.03162 µM)?
Answer: 0.27

Question: And the relative viability (NCI-H1944; first compound 0.1 µM)?
Answer: 0.248

Question: And the relative viability (NCI-H1944; first compound 0.3162 µM)?
Answer: 0.249

Question: And the relative viability (NCI-H1944; first compound 1 µM)?
Answer: 0.213

Question: And the relative viability (HARA; first compound 0.01 µM)?
Answer: 0.104

Question: And the relative viability (HARA; first compound 0.03162 µM)?
Answer: 0.122

Question: And the relative viability (HARA; first compound 0.1 µM)?
Answer: 0.0948

Question: What about the relative viability (HARA; first compound 0.3162 µM) of the same molecule?
Answer: 0.0933

Question: And the relative viability (HARA; first compound 1 µM)?
Answer: 0.0989

Question: And the relative viability (NCI-H358; first compound 0.01 µM)?
Answer: 0.108

Question: And the relative viability (NCI-H358; first compound 0.03162 µM)?
Answer: 0.0902

Question: What about the relative viability (NCI-H358; first compound 0.1 µM) of the same molecule?
Answer: 0.115

Question: And the relative viability (NCI-H358; first compound 0.3162 µM)?
Answer: 0.104

Question: And the relative viability (NCI-H358; first compound 1 µM)?
Answer: 0.101

Question: What about the relative viability (NCI-H1793; first compound 0.01 µM) of the same molecule?
Answer: 0.311

Question: What about the relative viability (NCI-H1793; first compound 0.03162 µM) of the same molecule?
Answer: 0.367

Question: And the relative viability (NCI-H1793; first compound 0.1 µM)?
Answer: 0.362

Question: What about the relative viability (NCI-H1793; first compound 0.3162 µM) of the same molecule?
Answer: 0.348

Question: And the relative viability (NCI-H1793; first compound 1 µM)?
Answer: 0.241

Question: What about the relative viability (HCC-78; first compound 0.01 µM) of the same molecule?
Answer: 0.433

Question: What about the relative viability (HCC-78; first compound 0.03162 µM) of the same molecule?
Answer: 0.399

Question: And the relative viability (HCC-78; first compound 0.1 µM)?
Answer: 0.507

Question: And the relative viability (HCC-78; first compound 0.3162 µM)?
Answer: 0.55

Question: What about the relative viability (HCC-78; first compound 1 µM) of the same molecule?
Answer: 0.446

Question: What about the relative viability (NCI-H838; first compound 0.01 µM) of the same molecule?
Answer: 0.315

Question: What about the relative viability (NCI-H838; first compound 0.03162 µM) of the same molecule?
Answer: 0.282

Question: What about the relative viability (NCI-H838; first compound 0.1 µM) of the same molecule?
Answer: 0.259

Question: And the relative viability (NCI-H838; first compound 0.3162 µM)?
Answer: 0.271

Question: And the relative viability (NCI-H838; first compound 1 µM)?
Answer: 0.205

Question: And the relative viability (ChaGo-K-1; first compound 0.01 µM)?
Answer: 0.233

Question: What about the relative viability (ChaGo-K-1; first compound 0.03162 µM) of the same molecule?
Answer: 0.213

Question: What about the relative viability (ChaGo-K-1; first compound 0.1 µM) of the same molecule?
Answer: 0.223

Question: What about the relative viability (ChaGo-K-1; first compound 0.3162 µM) of the same molecule?
Answer: 0.242

Question: What about the relative viability (ChaGo-K-1; first compound 1 µM) of the same molecule?
Answer: 0.219

Question: And the relative viability (ABC-1; first compound 0.01 µM)?
Answer: 0.211

Question: What about the relative viability (ABC-1; first compound 0.03162 µM) of the same molecule?
Answer: 0.21

Question: And the relative viability (ABC-1; first compound 0.1 µM)?
Answer: 0.207

Question: And the relative viability (ABC-1; first compound 0.3162 µM)?
Answer: 0.148

Question: And the relative viability (ABC-1; first compound 1 µM)?
Answer: 0.187

Question: And the relative viability (NCI-H23; first compound 0.01 µM)?
Answer: 0.408

Question: What about the relative viability (NCI-H23; first compound 0.03162 µM) of the same molecule?
Answer: 0.405

Question: What about the relative viability (NCI-H23; first compound 0.1 µM) of the same molecule?
Answer: 0.352

Question: What about the relative viability (NCI-H23; first compound 0.3162 µM) of the same molecule?
Answer: 0.301

Question: And the relative viability (NCI-H23; first compound 1 µM)?
Answer: 0.339
